We go through eleven compounds from ChEMBL document CHEMBL1201862, “PubChem BioAssay data set” (2004).

Each structure is given as a SMILES string.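 Growth conditions: 96-well plates. Treatment: test compound, 48 hours, 5 concentrations. Analysis: linear interpolation between bracketing concentrations; unreached endpoints set to highest concentration. GI50 is the concentration that inhibits growth by half.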 The source made the active and inactive calls. Cut-off read from the data, not from the text of the source: active = GI50 up to about 1.1 µM and inactive = higher. Where only a bound is given, the exact number is not on record here.

Holding throughout (test): inhibition of tumour cell growth, NCI panel, 48 h
Experiment [1] deals with TK-10.
For experiment [2], the system named is CCRF-CEM.
The subject of experiment [3] is SF-539.
Experiment [4] has as its system MDA-MB-231.
Experiment [5] relates to SNB-19.
The test system of experiment [6] is A498.
Experiment [7] relates to EKVX.
The subject of experiment [8] is HL-60.
Experiment [9] has as its system NCI-H522.
Experiment [10] deals with SNB-75.
The subject of experiment [11] is ACHN.
Experiment [12] has as its system SW-620.
For experiment [13], the system named is NCI-H23.
Experiment [14] relates to M14.
The test system of experiment [15] is RPMI-8226.
Experiment [16] relates to HCC 2998.
In experiment [17] the test system is MDA-MB-435.
Experiment [18] concerns A549.
The subject of experiment [19] is RXF 393.
Experiment [20] has as its system MOLT-4.

Turning to `COC1=CC2(CC(OC)=C1OC)OC21COc2ccccc2C1=O` (stereo not given), the GI50 in experiment [1] was > 100 µM (inactive); in experiment [2], 32.3 µM (inactive); in experiment [3], > 100 µM (inactive); in [4], > 100 µM (inactive); in experiment [5], 65.2 µM (inactive); in experiment [6], > 100 µM (inactive). The GI50 is 39.4 µM (inactive) in experiment [7]; 32.4 µM (inactive) in experiment [8]; 75 µM (inactive) in experiment [9]; 37.4 µM (inactive) in experiment [10]; 45.1 µM (inactive) in experiment [11]; > 100 µM (inactive) in experiment [12]. Further, the GI50 in [13] was 58.5 µM (inactive); in experiment [14], 87.5 µM (inactive); in [15], 51.5 µM (inactive); in experiment [16], > 100 µM (inactive); in [17], > 100 µM (inactive); in experiment [18], 56.4 µM (inactive). The results for the GI50 in [19] and in experiment [20] were 46 µM (inactive) and 23 µM (inactive), respectively.
Turning to `COc1ccc2[nH]c3c([N+](=O)[O-])ccc(Cl)c3c(=O)c2c1`, the GI50 in [1] was 20.2 µM (inactive); in experiment [2], 2.12 µM (inactive); in experiment [3], 17.9 µM (inactive); in experiment [4], 18 µM (inactive); in [5], 51.4 µM (inactive); in experiment [6], 91.2 µM (inactive). In addition, the GI50 in [7] is 44.1 µM (inactive); in experiment [8] it was 3.02 µM (inactive); in experiment [9], 19 µM (inactive); in experiment [11] it was 15.8 µM (inactive); in [12] it was 7.67 µM (inactive); in [13], 24.8 µM (inactive). In addition, the GI50 in experiment [14] is 15.8 µM (inactive); in experiment [15], 17.4 µM (inactive); in experiment [16], 28.9 µM (inactive); in experiment [17] it was 21 µM (inactive); in experiment [18], 62.4 µM (inactive); in experiment [19], 13.6 µM (inactive). Moreover, the GI50 in experiment [20] was 3.52 µM (inactive).
On to `O=C(OCc1ccccc1[N+](=O)[O-])N1c2ccccc2[C@@]23O[C@]24CCC[C@H]3C#C/C=C\C#C[C@H]14`, for which the GI50 in experiment [1] is > 100 µM (inactive); in experiment [2], 4.21 µM (inactive); in experiment [3] it was 9.95 µM (inactive); in experiment [4], > 100 µM (inactive); in experiment [5], > 100 µM (inactive); in [6], > 100 µM (inactive). For the same compound, the GI50 was > 100 µM (inactive) in experiment [7]; 2.5 µM (inactive) in experiment [8]; 78 µM (inactive) in [9]; 12.8 µM (inactive) in [11]; 9.16 µM (inactive) in experiment [12]; 18.7 µM (inactive) in experiment [13]. For the same compound, the GI50 in experiment [14] is > 100 µM (inactive); in experiment [16], 41.3 µM (inactive); in experiment [17] it was > 100 µM (inactive); in [18], 4.02 µM (inactive); in [19] it was > 100 µM (inactive); in [20], 1.46 µM (inactive).
As for `Cc1cc(-c2nc3cc(F)ccc3s2)ccc1NC(=O)[C@@H](N)CCCCN`, the GI50 is < 0.0132 µM (active) in experiment [1]; 4.99 µM (inactive) in [3]; 2.29 µM (inactive) in experiment [4]; 10.4 µM (inactive) in experiment [5]; 10.2 µM (inactive) in [6]; 1.87 µM (inactive) in experiment [7]. Moreover, the GI50 in experiment [8] was 2.02 µM (inactive); in [9], 5.46 µM (inactive); in experiment [10], 1.82 µM (inactive); in [11], 6.04 µM (inactive); in experiment [12] it was 2.65 µM (inactive); in experiment [13], 1.48 µM (inactive). Moreover, the GI50 in [14] was 2.14 µM (inactive); in experiment [15], 2.09 µM (inactive); in experiment [16], 0.735 µM (active); in experiment [17], 1.79 µM (inactive); in [18] it was 1.67 µM (inactive); in experiment [19] it was 7.26 µM (inactive). For the same compound, in [20], the GI50 is 1.3 µM (inactive).
As to `CC(=O)Nc1cc2ccc(=O)oc2cc1Cl`, the GI50 in experiment [2], in experiment [3], in experiment [4], in experiment [5], in [6] and in [7] was > 100 µM (inactive) in each case. Further, the GI50 in [8], in experiment [9], in [10], in [11], in experiment [12] and in experiment [13] was > 100 µM (inactive) throughout. The GI50 in experiment [14], in experiment [15], in [16], in [17], in experiment [18] and in [19] was > 100 µM (inactive) each time. Besides, in experiment [20], the GI50 is > 100 µM (inactive).
Turning to `COC1=C(N2CC2)C(=O)c2nc3n(c2C1=O)CCC3`, the GI50 in [1] is 3.23 µM (inactive); in experiment [2], 0.265 µM (active); in experiment [3] it was 2.04 µM (inactive); in experiment [4] it was 2.72 µM (inactive); in experiment [5] it was 1.39 µM (inactive); in experiment [6], 1.41 µM (inactive). For the same compound, the GI50 in experiment [8] was 0.21 µM (active); in experiment [9], 0.147 µM (active); in experiment [10], 1.71 µM (inactive); in [11], 0.275 µM (active); in [12], 0.242 µM (active); in [13], 0.497 µM (active). For the same compound, the GI50 was 0.22 µM (active) in [14]; 0.0489 µM (active) in [15]; 0.679 µM (active) in experiment [16]; 1.45 µM (inactive) in [17]; 1.98 µM (inactive) in [18]; 0.0743 µM (active) in experiment [19]. In addition, the GI50 in experiment [20] is 0.306 µM (active).
On to `C[C@]12CC[C@H]3[C@@H](CCC4=CC(=O)CC[C@@]43C)[C@@H]1CC[C@@H]2OC(=O)c1cccc2c(=O)c3ccccc3[nH]c12`, for which the GI50 is > 100 µM (inactive) in experiment [1]; 58.1 µM (inactive) in experiment [2]; > 100 µM (inactive) in experiment [3]; > 100 µM (inactive) in experiment [4]; > 100 µM (inactive) in experiment [5]; > 100 µM (inactive) in experiment [6]. The GI50 in [7] was 7.57 µM (inactive); in [9], > 100 µM (inactive); in experiment [10], 13.9 µM (inactive); in [11], > 100 µM (inactive); in experiment [12], > 100 µM (inactive); in [13] it was > 100 µM (inactive). For the same compound, the GI50 in [14] is > 100 µM (inactive); in [15], 24.3 µM (inactive); in experiment [16], 25.2 µM (inactive); in experiment [17], 43.2 µM (inactive); in experiment [18], > 100 µM (inactive); in [19], 75.7 µM (inactive). For the same compound, the GI50 in experiment [20] was 32.1 µM (inactive).
Consider `COc1ccc(OC)c2c(C)ccnc12`, for which the GI50 in experiment [1] is 81.7 µM (inactive); in [2], 5.25 µM (inactive); in experiment [4] it was 34 µM (inactive); in experiment [5] it was 19.9 µM (inactive); in experiment [6], 56.8 µM (inactive); in [7] it was 14.3 µM (inactive). Besides, the GI50 in experiment [9] was 4.1 µM (inactive); in experiment [10], 33.1 µM (inactive); in experiment [11], 18.3 µM (inactive); in [12], 10.5 µM (inactive); in experiment [13] it was 27.2 µM (inactive); in experiment [14], 10.6 µM (inactive). Also, the GI50 in experiment [15] is 32.9 µM (inactive); in experiment [16], > 95.5 µM (inactive); in experiment [17], 25.7 µM (inactive); in experiment [18] it was 21.4 µM (inactive); in [19], 16.1 µM (inactive).
`CC(=O)O[C@H]1C[C@H]2C(=S)Nc3ccccc3C(=S)N2C1`: the GI50 in experiment [1], in [2], in experiment [4], in [5], in [6] and in experiment [7] was > 100 µM (inactive) in each case. Also, the GI50 in experiment [9] is > 100 µM (inactive); in experiment [10] it was 88.3 µM (inactive); in experiment [11] it was > 100 µM (inactive); in experiment [12] it was > 100 µM (inactive); in experiment [13] it was > 100 µM (inactive); in experiment [14], > 100 µM (inactive). Besides, the GI50 in experiment [15], in experiment [16], in experiment [17], in experiment [18], in [19] and in experiment [20] was > 100 µM (inactive) throughout.
For the compound `c1cc2nsnc2c2c[nH]cc12`, the GI50 in [1] was > 100 µM (inactive); in experiment [2] it was > 100 µM (inactive); in experiment [3] it was > 100 µM (inactive); in [4], 56.6 µM (inactive); in experiment [6] it was 24.7 µM (inactive); in experiment [7], 26.9 µM (inactive). The GI50 in experiment [8] was 67.1 µM (inactive); in experiment [9], 56.5 µM (inactive); in experiment [10], 50.6 µM (inactive); in [11], 81.5 µM (inactive); in [12] it was > 100 µM (inactive); in experiment [13] it was > 100 µM (inactive). Also, the GI50 in experiment [15] was > 100 µM (inactive); in experiment [16], > 100 µM (inactive); in experiment [17] it was 40.6 µM (inactive); in [18] it was 64.9 µM (inactive); in [19], 52.7 µM (inactive); in experiment [20], 85.3 µM (inactive).
`COc1ccccc1NC(=S)N/N=C1\C(=O)Nc2ccccc21`: the GI50 in experiment [1], in experiment [2], in experiment [3], in [4], in experiment [5] and in [6] was > 100 µM (inactive) in each case. Further, the GI50 in [7] was 86.3 µM (inactive); in experiment [9], > 100 µM (inactive); in [10] it was 58.9 µM (inactive); in experiment [11] it was > 100 µM (inactive); in experiment [12] it was > 100 µM (inactive); in experiment [13] it was > 100 µM (inactive). Also, the GI50 in [14], in experiment [15], in experiment [16], in experiment [17], in experiment [18] and in experiment [19] was > 100 µM (inactive) throughout. In experiment [20], the GI50 is > 100 µM (inactive).
